Data from publication PMC11597817, “Modulation of Multispecific Transporters by Uncaria tomentosa Extract and Its Major Phytoconstituents” (Pharmaceutics, 2024).
Like-named read-outs stand apart in the source and are kept apart here.

How the values were obtained:
OAT3 = target: T1, OAT3 (Homo sapiens, UniProt Q8TCC7); test: Uptake inhibition assay, OAT3-overexpressing HEK293 cells; format: cell-based; conditions: oxindole alkaloids, substrate E3S, read-out: IC50 (95% CI of IC50)
T1 construct: expressed in transfected cells; host or cells: HEK293 (lentiviral transduction; cDNA synthesised by GenScript)
T1 sequence (Q8TCC7 whole entry): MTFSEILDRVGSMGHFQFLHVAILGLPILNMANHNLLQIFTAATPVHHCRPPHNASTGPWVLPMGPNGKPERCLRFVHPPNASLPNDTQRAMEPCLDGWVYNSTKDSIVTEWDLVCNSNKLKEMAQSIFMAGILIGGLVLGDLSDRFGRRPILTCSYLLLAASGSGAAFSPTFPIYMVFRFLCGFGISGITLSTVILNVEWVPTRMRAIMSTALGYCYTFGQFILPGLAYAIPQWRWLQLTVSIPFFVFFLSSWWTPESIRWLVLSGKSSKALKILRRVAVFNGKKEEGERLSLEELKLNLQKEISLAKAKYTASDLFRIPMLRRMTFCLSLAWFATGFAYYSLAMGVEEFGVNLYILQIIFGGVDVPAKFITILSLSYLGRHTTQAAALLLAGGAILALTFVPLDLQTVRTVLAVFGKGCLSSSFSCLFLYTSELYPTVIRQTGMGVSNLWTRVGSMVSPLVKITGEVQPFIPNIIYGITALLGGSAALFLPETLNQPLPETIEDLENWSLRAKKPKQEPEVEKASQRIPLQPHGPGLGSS
Experimental: The human embryonic kidney 293 (HEK293) cell line was purchased from Invitrogen/ThermoFisher (Waltham, MA, USA). Madin–Darby canine kidney II (MDCKII) wild type cells were obtained from the European Collection of Authenticated Cell Cultures (ECACC catalog no. 00062107). […]
Plated cells were preincubated with a transport buffer (HBSS) containing 30 or 150 µg/mL of UT extract or 100 µM of isopteropodine, mitraphylline, or uncarine D for 15 min at an appropriate temperature. […] For radiolabeled substrates, accumulation was measured by liquid scintillation counting (MicroBeta Scintillation Counter, PerkinElmer).
The transporter-mediated uptake and ATP-dependent transport were determined by subtracting the activity of the control cell/transporter abundant-membrane in the presence of AMP from the activity of the transporter-overexpressing cell/transporter-abundant membrane in the presence of ATP. The relative transporter-specific accumulation was expressed as the percent of DMSO activity. […] Confidence intervals (CIs) of 95% were also determined. […]

MRPs = conditions: cited from earlier work

| SMILES | IC50 (OAT3; listed as Isopteropodine) [µM] | IC50 (OAT3) [µM] | interaction with MRPs (MRPs) |
| --- | --- | --- | --- |
| COC(=O)C1=CO[C@@H](C)[C@@H]2CN3CC[C@@]4(C(=O)Nc5ccccc54)[C@@H]3C[C@H]12 [isopteropodine] | 46.5 | 46.5 | – |
| COC(=O)C1=CO[C@@H](C)[C@H]2CN3CC[C@]4(C(=O)Nc5ccccc54)[C@@H]3C[C@H]12 [mitraphylline] | – | – | not to interact with MRPs |
